Data taken from patent US20020002170A1, “Piperidine and piperazine derivatives as inhibitors of the abeta fibril formation” (priority 1999, published 2002).
Where a name gives a salt, the structure may show the parent alone.

With `CN1C[C@H](CN2CCN(C(c3ccccc3)c3ccccc3)CC2)C=C2c3cccc4[nH]c(Cl)c(c34)C[C@H]21` the melting point was 208 °C (dec.).
In the case of `CN1C[C@H](CN2CCN(C(c3ccccc3)c3ccccc3)CC2)C[C@@H]2c3cccc4[nH]c(Br)c(c34)C[C@H]21`, the melting point is reported as 255 °C (dec.).
In the case of `COc1ccc(C2(c3ccc(OC)cc3)CCN(CC[C@@H]3C=C4c5cccc6[nH]cc(c56)C[C@H]4N(C)C3)CC2)cc1`, the melting point is reported as 184 to 187 °C (dec.).
In the case of `CN1C[C@H](CN2CCN(C(c3ccccc3)c3ccccc3)CC2)C[C@@H]2c3cccc4[nH]c(Cl)c(c34)C[C@H]21`, the melting point is reported as 250 °C (dec.).
With `CN1C[C@H](CN2CCN(C(c3ccccc3)c3ccccc3)CC2)C=C2c3cccc4[nH]cc(c34)C[C@H]21` the melting point was > 200 °C (dec.).
With `COc1ccc(C2(c3ccc(OC)cc3)CCN(C[C@@H]3C=C4c5cccc6[nH]c(Cl)c(c56)C[C@H]4N(C)C3)CC2)cc1` the melting point was > 204 °C (dec.).
With `CN1C[C@H](CN2CCC(O)(c3ccc(Cl)cc3)CC2)C=C2c3cccc4[nH]c(Cl)c(c34)C[C@H]21` the melting point was > 192 °C (dec.).

First: COc1ccc(C2(c3ccc(OC)cc3)CCN(C[C@@H]3C[C@@H]4Cc5c(cccc5OC)C[C@H]4N(C)C3)CC2)cc1 (as salt: fumarate)
Second: COc1ccc(C2(c3ccc(OC)cc3)CCN(CC[C@@H]3C[C@@H]4Cc5c(cccc5OC)C[C@H]4N(C)C3)CC2)cc1 (as salt: succinate)
The melting point of the first is higher: 216 to 219 °C for the first, 138 to 142 °C for the second.

Compared with `COc1cccc2c1C[C@H]1C[C@@H](CCN3CCC(O)(c4ccc(Cl)cc4)CC3)CN(C)[C@@H]1C2` (as salt: succinate), `COc1cccc2c1C[C@H]1C[C@@H](CN3CCC(O)(c4ccc(Cl)cc4)CC3)CN(C)[C@@H]1C2` is lower in melting point: 212 to 215 °C for the first, 202 to 204 °C for the second.

First: CCN1C[C@H](CN2CCN(C(c3ccccc3)c3ccccc3)CC2)C[C@@H]2c3cccc4[nH]cc(c34)C[C@H]21
Second: CN1C[C@H](CN2CCN(C(c3ccccc3)c3ccccc3)CC2)C[C@@H]2c3cccc4[nH]cc(c34)C[C@H]21
The melting point of the first is lower: 203 to 205 °C for the first, 230 to 233 °C for the second.

Compared with `CN1C[C@H](CCN2CCC(O)(c3ccc(Cl)cc3)CC2)C=C2c3cccc4[nH]cc(c34)C[C@H]21`, `CN1C[C@H](CN2CCC(O)(c3ccc(Cl)cc3)CC2)C=C2c3cccc4c3c(cn4C)C[C@H]21` is lower in melting point: 154 to 157 °C for the first, 101 to 107 °C for the second.

First: CN1C[C@H](CCN2CCN(C(c3ccccc3)c3ccccc3)CC2)C=C2c3cccc4[nH]cc(c34)C[C@H]21
Second: CN1C[C@H](CN2CCN(C(c3ccccc3)c3ccccc3)CC2)C=C2c3cccc4c3c(cn4C)C[C@H]21
The melting point of the first is lower: 165 to 169 °C for the first, 172 to 175 °C for the second.

Compared with `CO[C@]12C[C@@H](CN3CCC(O)(c4cccc(C(F)(F)F)c4)CC3)CN(C)[C@@H]1Cc1c[nH]c3cccc2c13`, `CO[C@]12C[C@@H](CN3CCC(O)(c4ccc(Cl)c(C(F)(F)F)c4)CC3)CN(C)[C@@H]1Cc1c[nH]c3cccc2c13` is higher in melting point: 135 to 140 °C for the first, 143 to 146 °C for the second.

First: COc1cccc2c1C[C@H]1C[C@@H](CN3CCC(NC(=O)C(c4ccccc4)c4ccccc4)CC3)CN(C)[C@@H]1C2 [Example 12, N-[1-((3S,4aR,10aR)-6-Methoxy-1-methyl-1,2,3,4,4a,5,10,10a-octahydro-benzo[g]quinolin-3-ylmethyl)-piperidin-4-yl]-2,2-diphenyl-acetamide]
Second: COc1cccc2c1C[C@H]1C[C@@H](CN3CCN(C(c4ccccc4)c4ccccc4)CC3)CN(C)[C@@H]1C2 [Example 10, [3S,4aR,10aR]-3-(4-Benzhydryl-piperazin-1-ylmethyl)-6-methoxy-1-methyl-1,2,3,4,4a,5,10,10a-octahydro-benzo[g]quinoline]
The melting point of the first is lower: 219 to 222 °C for the first, 278 to 280 °C for the second.

Compared with `COc1ccc(C2(c3ccc(OC)cc3)CCN(C[C@H]3CN(C)[C@@H]4Cc5c(Br)[nH]c6cccc(c56)[C@@]4(OC)C3)CC2)cc1` (as salt: tartrate), `COc1ccc(C2(c3ccc(OC)cc3)CCN(C[C@H]3CN(C)[C@@H]4Cc5c[nH]c6cccc(c56)[C@@]4(OC)C3)CC2)cc1` is higher in melting point: 167 to 172 °C for the first, 215 to 222 °C for the second.

Compared with `COc1cccc2c1C[C@H]1C[C@@H](CCN3CCN(C(c4ccccc4)c4ccccc4)CC3)CN(C)[C@@H]1C2` [Example 5, [3S,4aR,10aR]-3-[2-(4-Benzhydryl-piperazin-1-yl)-ethyl]-6-methoxy-1-methyl-1,2,3,4,4a,5,10,10a-octahydro-benzo[g]quinoline], `CN1C[C@H](CCN2CCN(C(c3ccccc3)c3ccccc3)CC2)C[C@@H]2c3cccc4[nH]cc(c34)C[C@H]21` is higher in melting point: 140 to 148 °C for the first, 206 to 212 °C for the second.

Compared with `CO[C@]12C[C@@H](CCN3CCC(O)(c4ccc(Cl)cc4)CC3)CN(C)[C@@H]1Cc1c[nH]c3cccc2c13`, `CO[C@]12C[C@@H](CN3CCC(O)(c4ccc(Cl)cc4)CC3)CN(C)[C@@H]1Cc1c[nH]c3cccc2c13` is higher in melting point: 133 to 139 °C for the first, 144 to 148 °C for the second.

`COc1ccc(C2(c3ccc(OC)cc3)CCN(CC[C@H]3CN(C)[C@@H]4Cc5c[nH]c6cccc(c56)[C@@]4(OC)C3)CC2)cc1` and `CO[C@]12C[C@@H](CCN3CCN(C(c4ccccc4)c4ccccc4)CC3)CN(C)[C@@H]1Cc1c[nH]c3cccc2c13` cannot be ordered by melting point: 129 to 136 °C for the first, 130 °C for the second.
